Laboratory results from the NIST ThermoML archive (doi:10.1016/j.jct.2007.05.015).
± gives the expanded uncertainty stated by the source.

Assay: xn = mol fraction of the nth substance listed
Settings: 298.15 K, 101 kPa, Liquid

CC(=O)N(C)C [N,N-dimethylethanamide] + O
Settings	mass density [kg/m3]	speed of sound [m/s]
x1 = 0.00083	996.94 ± 1	1499.8 ± 5.9
x1 = 0.00163	996.87 ± 1	1502.4 ± 5.9
x1 = 0.03959	995.84 ± 1.1	1616.2 ± 6.2
x1 = 0.055	996.37 ± 1	1645.5 ± 6.3
x1 = 0.06456	996.62 ± 1	1663.2 ± 6.4
x1 = 0.08126	997.29 ± 1	1678.6 ± 6.4
x1 = 0.1	997.94 ± 1	1700.3 ± 6.5
x1 = 0.1208	998.5 ± 1	1717.9 ± 6.6
x1 = 0.1447	998.68 ± 1	1730.7 ± 6.6
x1 = 0.1714	998.55 ± 1	1737.9 ± 6.6
x1 = 0.2012	997.61 ± 1	1749.4 ± 6.7
x1 = 0.2381	995.72 ± 1.1	1734.5 ± 6.6
x1 = 0.2761	992.03 ± 1.1	1719.7 ± 6.6
x1 = 0.3245	988.32 ± 1.1	1703.6 ± 6.5
x1 = 0.3783	985.12 ± 1.2	1682.1 ± 6.5
x1 = 0.4137	982.41 ± 1.2	1669 ± 6.4
x1 = 0.452	979.26 ± 1.3	1653.4 ± 6.4
x1 = 0.4832	975.57 ± 1.3	1638.2 ± 6.3
x1 = 0.5372	969.73 ± 1.4	1605.4 ± 6.2
x1 = 0.583	965.29 ± 1.4	1586.8 ± 6.2
x1 = 0.6496	959.34 ± 1.5	1559.2 ± 6.1
x1 = 0.7074	953.42 ± 1.6	1534.2 ± 6
x1 = 0.7633	949.72 ± 1.6	1522 ± 6
x1 = 0.8342	946.12 ± 1.7	1489 ± 5.9
x1 = 0.9053	940.96 ± 1.8	1482.2 ± 5.8
x1 = 1	936.34 ± 1.8	1455.9 ± 5.8
